The text below walks through data of patent US9284580B2 (priority 2010, dated 2016).

The subject of one experiment is S. cerevisiae strains. As to conditions: 1% (v/v) butanol; most S. cerevisiae strains; cited from earlier work.
The subject of a further experiment is P. putida. The conditions noted are these: several strains of P. putida; cited from earlier work.
In the next experiment the test system is E. coli. The conditions noted are these: 2% (v/v) butanol; cited from earlier work.
For experiment [1], the system named is C. beijerinckii ATCC 55025. The source says: Cell growth was monitored by measuring the optical density at 600 nm (OD600) of the culture broth.

Read-outs that look alike come from different tables or passages of the source.

In the case of butanol, the “relative specific growth rate” value in the experiment with S. cerevisiae strains was 60%. The tolerated butanol concentration result in the experiment on P. putida was “up to 6 % (w/v)”. Moreover, the growth result in the experiment on E. coli is given as “no growth was observed”. Also, the growth rate reduction in experiment [1] (1% (v/v) butanol) is reported as around 20%; in experiment [1] (1.5% (v/v) butanol) it was around 85%. In experiment [1] (2% (v/v) butanol, no cell growth even after 10 days incubation), the cell growth result is listed as “completely inhibited”.
